Reference: patent US20060258754A1, “Method of treating endothelial dysfunction, oxidative stress and related diseases” (priority 2004, published 2006)
“Also recorded” adds a separate entry of the source.

Key:
[1] = system: aortic rings; test: Rat aortic thoracic rings: acetylcholine relaxation after phenylephrine contraction, 4-week oral treatment; assay type: in vivo, alloxan-diabetic male Wistar rats; details: for endothelial dysfunction overall: 4-week oral administration versus saline treated alloxan diabetic rats; for effect on macrovascular endothelial dysfunction at highest acetyl choline concentrations: FIG. 2, FIG. 3; for effect on macrovascular endothelial dysfunction at intermediate acetylcholine concentration: acetylcholine 10^-7 M
Experimental: Male Wistar rats, weighing between 230-250 g, fed regular chow, with free access to water were separated in four groups (n=10/each). The first two groups, termed normoglycemic, were treated with saline (0.1 mL/100 g/12 h) by the oral route (intragastric gavage) or untreated for four weeks. The second two groups, hyperglycemic, were treated with saline (0.1 mL/100 g/12 h) or treated with D-chiro-inositol (20 mg/kg/12 h) under the same protocol. […] Diabetes was induced by a single intravenous injection of 45 mg/kg alloxan as described by Sannomiya et al., 1997 ( ). Diabetes was diagnosed 96 h after injection by blood glucose assay >200 mg/dL. All protocols were approved by the local committee and follow the Guide for the Care and Use of Laboratory Animals published by the US National Institutes of Health (NIH Publication No. 85-23, revised 1996). After completion of blood pressure measurements and vascular mesenteric bed collection, animals were sacrificed by exsanguination while under anesthesia. The thoracic aorta was excised and rapidly cleansed of connective tissue in Petri dishes containing warmed and gassed (95% O2 in 5% CO2) Krebs-Henseleit solution (KHS). The aorta segment was cut in small rings (≈5 mm) and mounted horizontally in 5 mL chambers for isometric recording of tension. The resting tension was adjusted to 1 g and the tissue allowed to equilibrate for 1 hour with a 15 min washout period. Tissues were kept in KHS at 37° C., gassed with the O2, CO2 mixture and isometric recordings made with a force displacement transducer connected to a four-channel polygraph (Narco Biosystems, Houston, Tex., USA). After the equilibration period, tissues were contracted with a submaximal concentration of phenylephrine (≈60% maximal response) until two similar responses were obtained in order to ensure reproducibility of the contraction curves. […] The acetylcholine dose response curve was repeated after a 60 min washout interval. All experiments were performed in the presence of indomethecin (10 μM) and guanethidine (10 μM) to prevent the production of vasoactive prostanoids. At least 6 separate experiments will be performed each in duplicate.

[2] = system: ROS generated by xanthine/xanthine oxidase; test: Superoxide assay in vitro: xanthine/xanthine oxidase, NBT reduction; assay type: biochemical; details: low micromolar concentrations, FIG. 10
Experimental: Superoxide radicals were generated by the reaction of xanthine (1 mM) and xanthine oxidase ([…]) in air-saturated potassium phosphate buffer (pH 7.8 at 25° C.). Superoxide anions were detected by nitroblue tetrazolium (NBT—50 μM) which undergoes reduction by O2-. to its formazan. The rate of reduction was monitored spectrophotometrically at 560 nm with an Ultrospec 1000 (Pharmacia Biotech, Cambridge, England). SOD-1, by scavanging O2-. Diminishes the rate of reduction of NBT. The volume was fixed at 2 mL. Each experiment was run in duplicate.

[3] = system: penile corpus cavernosus; test: Rabbit penile corpus cavernosus: relaxation to electrical field stimulation after 60 min incubation; design: species or system low dose alloxan-diabetic rabbit; details: 1 μM; for restoration of vasorelaxant effect of electrical stimulation of the pudendal nerve: EFS 2-16 Hz, FIG. 8
Experimental: Male California rabbits, weighing 2-2.5 kg, were provided by the vivarium of the Biomedicine Institute-UFC. Diabetes was induced by intraperitoneal injection of alloxan (150 mg/kg) and only animals with plasma glucose concentration above 200 mg/dl were included in the study. Age-matched euglycemic rabbits were used as controls.
Kidneys and aortic rings were harvested from diabetic rabbits after 3 weeks of alloxan injection. The animals were sacrificed under sodium pentobarbital anesthesia (Hypnol®, 150-200 mg/kg). […]. Rabbit kidneys were obtained from male New Zealand rabbits (1-1.5 kg) after cannulation of the renal artery in situ. [Thereafter the organ is rapidly perfused with warm KHS at 37° C., pH 7.4 and gassed with 95% O2 in 5% CO2 in an open system with a constant flow adjusted to yield 1 mL/g/min and maintained by a peristaltic pump. The alterations in perfusion pressure are continuously recorded in a four-channel polygraph (Narco Biosystems, Houston, Tex., USA) by means of a pressure transducer (P23 Gould Stratham, Oxnard, Calif., USA). After a 30 minute equilibration period, phenylephrine (1 to 5 μM) is infused by means of an infusion pump at a constant rate (0.1 ml/min) in order to achieve a stable perfusion pressure (100-120 mm Hg). Concentration-response curves are performed to the vasodilators, i.e. acetylcholine (Ach; 10^-9 to 10^-3 M). Drugs are injected as a 50 μL bolus, previously shown not to effect perfusion pressure in an arm side just above the cannula in the renal artery.] Following penectomy, the corpus cavernosum was dissected in Krebs solution and cleared of the tunica albuginea and surrounding tissues. Strips (2 cm) were mounted vertically in isometric baths (5 mL) in Krebs-Henseleit solution (37° C., pH 7.4 gassed with 95% O2 in 5% CO2) enriched with indomethecin (10 μM) and guanethedine (10 μM) in order to avoid prostanoid or neuronal norandrenergic interaction. After a 60 minute period for stabilization, tissues were precontracted with 10 μM phenylephrine in order to increase the basal tonus. Thereafter, frequency response curves to transmural electrical field stimulations (EFS—square wave pulses: 10 s train; 20 V, 0.5 ms, 2-16 Hz) were performed until two stable reproducible curves were attained. Then, frequency response curves were repeated after 60 min incubation with saline or 1 μM pinitol, DCI or db-DCI in the alloxan-diabetic rabbits. They are perfused with KHS containing 1 μM D-chiro-inositol, pinitol, dibutyryl D-chiro-inositol, myo-inositol or saline for 60 min. Dose response curves for acetylcholine are then performed following prior phenylephrine vasoconstriction as described. At least 6 separate experiments were performed each in duplicate.

[4] = system: diabetic aortic rings; test: NO-induced relaxation in diabetic aortic rings contracted with phenylephrine; details: 0.1 μM phenylephrine, inositol 10 μM, 1 hour, FIG. 14
Experimental: NO action was investigated in aortic rings and RbCC. […] The data in FIGS. 14 are expressed as mean±SEM of 5 experimental units. * p<0.05, ANOVA followed by Tukey-Kramer, diab (C) vs. Inositol treated. # p<0.05, ANOVA followed by Tukey-Kramer, Eugly vs. Inositol treated. In FIG. 14, Veh=vehicle; C=diabetic control; Diab=diabetic control; Eugly=euglycemic tissue. Relaxation was restored toward or to normal by incubation with inositols.

[5] = several publications; cited from earlier work
[6] = chronic oral administration, FIG. 3

SMILES	endothelial dysfunction overall [1]	endothelial dysfunction overall ([1]; listed as D-chiro-inositol)	relaxant response induced by acetylcholine, reversal of the pre-contractile state ([1]; D-chiro-inositol 20 mg/kg/12 h by gavage four weeks, lower acetylcholine concentrations, saline diabetic 57.4±4.5%) [%]	effect on macrovascular endothelial dysfunction at highest acetyl choline concentrations ([1]; chronic oral administration)	effect on macrovascular endothelial dysfunction at intermediate acetylcholine concentration [1, 6]	effect on macrovascular endothelial dysfunction at intermediate acetylcholine concentration ([1]; chronic oral administration, FIG. 3, listed as D-chiro-inositol)	reduction of ROS generated by xanthine/xanthine oxidase [2]	reduction of ROS generated by xanthine/xanthine oxidase ([2]; listed as D-chiro-inositol)	restoration of vasorelaxant effect of electrical stimulation of the pudendal nerve [3]	relaxation to added NO [4]	hyperglycemia, triglyceridemia and glucose disposal [5]	effect on macrovascular endothelial dysfunction at lowest acetyl choline concentrations [1, 6]	reduction of ROS generated by xanthine/xanthine oxidase ([2]; listed as dibutyryl D-chiro-inositol)	restoration of vasorelaxant effect at EFS of 4 Hz ([3]; EFS 4 Hz)
OC1C(O)C(O)C(O)C(O)C1O [DCI, D-chiro-inositol]	effective in improving endothelial dysfunction	prevented the endothelial dysfunction	100	partially restored to normal; also recorded: the most effective	followed by DCI, pinitol and myoinositol in descending order of effect	active at intermediate acetyl choline concentrations	reduced ROS in a low micromolar concentration dependant manner	equally effective	restoration of vasorelaxant effect	restored relaxation to normal	effective decrease of hyperglycemia, triglyceridemia and enhanced glucose disposal			
CCCC(=O)O[C@@H]1[C@@H](O)[C@@H](O)[C@H](O)[C@H](O)[C@H]1OC(=O)CCC [dbDCI, 3,4-dibutyryl-D-chiroinositol]				the most effective	greatest effect		reduced ROS in a low micromolar concentration dependant manner; also recorded: statistically more effective than the other 3 inositols		restoration of vasorelaxant effect; also recorded: greatest effect at all levels of electrical stimulation	restored relaxation to normal		most effective at the lowest acetyl choline concentrations	statistically more effective than the other 3 inositols	Almost complete restoration
